Experiment [1] has as its target Recombinant human Bcl-2 protein (Homo sapiens (Human), UniProt P10415). Briefly: Bcl-2 TR-FRET Assay. The experiment is classed as binding. The settings on record: Bcl-2 wild type, TR-FRET; read-out: Biochemical assay (IC50, nM) Bcl-2 WT. Put shortly:
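TR-FRET read (337 nm excitation, 520/490 nm emission) after 1 h with 0.5 nM FITC-labeled Bak peptide and Tb-cryptate anti-6His antibody. Bcl-2 at 0.05 nM had been pre-incubated 0.5 h with compound. IC50 fitted by four-parameter logistic equation.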

The target of experiment [2] is recombinant human Bcl-2-G101V protein (Homo sapiens (Human), UniProt P10415, G101V). The experiment can be described thus: Bcl-2-G101V TR-FRET Assay. The conditions noted are these: Bcl-2 G101V mutant, TR-FRET; read-out: Biochemical assay (IC50, nM) Bcl-2 G101V. The experiment is classed as binding. An outline of the steps:
(§1)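 Displacement of ligand from recombinant human Bcl-2-G101V measured by TR-FRET (ex337 nm, em490/520 nm), inhibition derived from the 490/520 ratio across compound titrations. IC50 from four-parameter logistic fit.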

For experiment [3], the system named is recombinant human Bcl-2-G101V protein. The experiment can be described thus: Bcl-2-G101V TR-FRET Assay. The format is binding. The conditions noted are these: ratio of biochemical IC50 Bcl-2 G101V / Bcl-2 WT. Put shortly:
as §1
(In TR-FRET formats the signal depends on donor and acceptor labels being close together.)

Experiment [4] relates to RS4;11 (BCL-2 dependent acute lymphoblastic leukemia cell line). The experiment can be described thus: RS4;11 Cell Proliferation Assay. The format is cell-based. The conditions noted are these: Homo sapiens, RS4-11, RS4;11 cells, read-out: Cellular proliferation assay (IC50, nM) RS4. An outline of the steps: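 Viability measured via CellTiter-Glo luminescence after a 48 h, 37 °C exposure to compounds (10 points, highest 1 μM). Seeding was 50,000 RS4;11 cells per well in 10% FBS RPMI-1640; IC50 given as mean.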

In experiment [5] the test system is BCL-2 G101V knock-in cell line H96 (derive from RS4;11). Briefly: Bcl 2-G101V Knock-In RS4;11 Cell Proliferation Assay. The format is cell-based. The conditions noted are these: Homo sapiens, RS4;11 Bcl-2 G101V knock-in clone H96, 48 hrs, CellTiter-GLO, read-out: Cellular proliferation assay (IC50, nM) RS4. Put shortly: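 CellTiter-Glo luminescence after 48 h, 37 °C compound treatment (10 concentrations, maximum 1 μM or 10 μM) gave mean IC50 values. Cells were 50,000 per well of H96, a BCL2-G101V knock-in single clone derived from RS4;11 by Cas9 editing.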

Each structure is given as a SMILES string.

As for `COc1ccc(CN2CCN(C3CC4(CCN(c5ccc(C(=O)NS(=O)(=O)c6ccc(NC[C@H]7CC[C@](C)(O)CC7)c([N+](=O)[O-])c6)c(Oc6cnc7[nH]ccc7c6)c5)CC4)C3)C(c3ccccc3C(C)C)C2)cc1Br` (stereo partly shown) [Example 143, 2-((1H-pyrrolo[2,3-b]pyridin-5-yl)oxy)-4-(2-(4-(3-bromo-4-methoxybenzyl)-2-(2-isopropylphenyl)piperazin-1-yl)-7-azaspiro[3.5]nonan-7-yl)-N-((4-((((1r,4r)-4-hydroxy-4-methylcyclohexyl)methyl)amino)-3-nitrophenyl)sulfonyl)benzamide], the IC50 was 0.48 nM in experiment [1], 2.6 nM in experiment [2], 0.674 nM in experiment [4] and 5.15 nM in experiment [5]. The “Ratio of Bcl-2 G101V/WT” value in experiment [3] stood at 5.5.
In the case of `COc1cc(CN2CCN(C3CC4(CCN(c5ccc(C(=O)NS(=O)(=O)c6ccc(NC[C@H]7CC[C@](C)(O)CC7)c([N+](=O)[O-])c6)c(Oc6cnc7[nH]ccc7c6)c5)CC4)C3)C(c3ccccc3C(C)C)C2)cc(Cl)c1OC` (stereo partly shown) [Example 148, 2-((1H-pyrrolo[2,3-b]pyridin-5-yl)oxy)-4-(2-(4-(3-chloro-4,5-dimethoxybenzyl)-2-(2-isopropylphenyl)piperazin-1-yl)-7-azaspiro[3.5]nonan-7-yl)-N-((4-((((1r,4r)-4-hydroxy-4-methylcyclohexyl)methyl)amino)-3-nitrophenyl)sulfonyl)benzamide], the IC50 in experiment [1] turned out to be 0.56 nM; in experiment [2], 2 nM; in experiment [4] it was 0.46 nM; in experiment [5], 2.81 nM. For the same compound, the “Ratio of Bcl-2 G101V/WT” value in experiment [3] stood at 3.6.
Regarding `CC(C)c1ccccc1[C@@H]1CN(Cc2cccc3c2OCCO3)CCN1C1CC2(C1)CN(c1ccc(C(=O)NS(=O)(=O)c3ccc(NC[C@H]4CC[C@](C)(O)CC4)c([N+](=O)[O-])c3)c(Oc3cnc4[nH]ccc4c3)c1)C2` [Example 149a, 2-((1H-pyrrolo[2,3-b]pyridin-5-yl)oxy)-4-(6-((R)-4-((2,3-dihydrobenzo[b][1,4]dioxin-5-yl)methyl)-2-(2-isopropylphenyl)piperazin-1-yl)-2-azaspiro[3.3]heptan-2-yl)-N-((4-((((1r,4r)-4-hydroxy-4-methylcyclohexyl)methyl)amino)-3-nitrophenyl)sulfonyl)benzamide], the IC50 in experiment [1] worked out at 0.11 nM; in experiment [2], 0.27 nM; in experiment [4], 0.17 nM; in experiment [5] it was 0.67 nM. The “Ratio of Bcl-2 G101V/WT” value in experiment [3] was 2.6.
In the case of `CC(C)c1ccccc1[C@H]1CN(Cc2cccc3c2OCCO3)CCN1C1CC2(C1)CN(c1ccc(C(=O)NS(=O)(=O)c3ccc(NC[C@H]4CC[C@](C)(O)CC4)c([N+](=O)[O-])c3)c(Oc3cnc4[nH]ccc4c3)c1)C2` [Example 149b, 2-((1H-pyrrolo[2,3-b]pyridin-5-yl)oxy)-4-(6-((S)-4-((2,3-dihydrobenzo[b][1,4]dioxin-5-yl)methyl)-2-(2-isopropylphenyl)piperazin-1-yl)-2-azaspiro[3.3]heptan-2-yl)-N-((4-((((1r,4r)-4-hydroxy-4-methylcyclohexyl)methyl)amino)-3-nitrophenyl)sulfonyl)benzamide], the IC50 in experiment [1] came out at 0.7 nM; in experiment [2] it was 8.4 nM; in experiment [4], 5.8 nM; in experiment [5], 20.4 nM. For the same compound, in experiment [3], the “Ratio of Bcl-2 G101V/WT” value is listed as 12.
The like results for `C#Cc1cc(CN2CCN(C3CC4(CCN(c5ccc(C(=O)NS(=O)(=O)c6ccc(NC[C@H]7CC[C@](C)(O)CC7)c([N+](=O)[O-])c6)c(Oc6cnc7[nH]ccc7c6)c5)CC4)C3)C(c3ccccc3C(C)C)C2)ccc1OC` (stereo partly shown) [Example 151, 2-((1H-pyrrolo[2,3-b]pyridin-5-yl)oxy)-4-(2-(4-(3-ethynyl-4-methoxybenzyl)-2-(2-isopropylphenyl)piperazin-1-yl)-7-azaspiro[3.5]nonan-7-yl)-N-((4-((((1r,4r)-4-hydroxy-4-methylcyclohexyl)methyl)amino)-3-nitrophenyl)sulfonyl)benzamide] were, in that order, 0.43 nM, 2.1 nM, 0.53 nM, 3.86 nM and 4.9.
